Measured values published in ChEMBL document CHEMBL1157124, “Synthesis and anticancer evaluation of alpha-lipoic acid derivatives” (Bioorg Med Chem Lett, 2010).
Activity calls are given as the source filed them. No cut-off for these calls is given here.

Columns and labels:
Type in all cases: functional
PC-3 [1] = assay: Cytotoxicity against human PC3 cells assessed as growth inhibition at 0.1 ug/ml after 24 hrs by MTT assay; conditions: for inhibition of growth at 0.1 µg/mL: PC-3, 24 h, read-out: GI
NCI-H460 [2] = assay: Cytotoxicity against human NCI-H460 cells assessed as growth inhibition at 100 ug/ml after 24 hrs by MTT assay; conditions: NCI-H460, 24 h, read-out: GI
PC-3 [3] = assay: Cytotoxicity against human PC3 cells assessed as growth inhibition at 1 ug/ml after 24 hrs by MTT assay
[4] = Cytotoxicity against human HO8910 cells assessed as growth inhibition at 0.1 ug/ml after 24 hrs by MTT assay; conditions: HO-8910, 24 h, read-out: GI
PC-3 [5] = assay: Cytotoxicity against human PC3 cells assessed as growth inhibition at 10 ug/ml after 24 hrs by MTT assay
KB [6] = assay: Cytotoxicity against human KB cells assessed as growth inhibition at 100 ug/ml after 24 hrs by MTT assay; conditions: read-out: GI
Bel-7402 [7] = assay: Cytotoxicity against human Bel7402 cells assessed as growth inhibition at 100 ug/ml after 24 hrs by MTT assay; conditions: Bel-7402, 24 h, read-out: GI
[8] = Cytotoxicity against human HO8910 cells assessed as growth inhibition at 100 ug/ml after 24 hrs by MTT assay; conditions: HO-8910, 24 h, read-out: GI
PC-3 [9] = assay: Cytotoxicity against human PC3 cells assessed as growth inhibition at 100 ug/ml after 24 hrs by MTT assay; conditions: PC-3, 24 h, read-out: GI
Bel-7402 [10] = assay: Cytotoxicity against human Bel7402 cells assessed as growth inhibition at 1 ug/ml after 24 hrs by MTT assay; conditions: Bel-7402, 24 h, read-out: GI
Bel-7402 [11] = assay: Cytotoxicity against human Bel7402 cells assessed as growth inhibition at 0.1 ug/ml after 24 hrs by MTT assay; conditions: Bel-7402, 24 h, read-out: GI
KB [12] = assay: Cytotoxicity against human KB cells assessed as growth inhibition at 0.1 ug/ml after 24 hrs by MTT assay; conditions: read-out: GI
[13] = Cytotoxicity against human HO8910 cells assessed as growth inhibition at 10 ug/ml after 24 hrs by MTT assay; conditions: HO-8910, 24 h, read-out: GI
Bel-7402 [14] = assay: Cytotoxicity against human Bel7402 cells assessed as growth inhibition at 10 ug/ml after 24 hrs by MTT assay; conditions: Bel-7402, 24 h, read-out: GI
NCI-H460 [15] = assay: Cytotoxicity against human NCI-H460 cells assessed as growth inhibition at 0.1 ug/ml after 24 hrs by MTT assay; conditions: NCI-H460, 24 h, read-out: GI
[16] = Cytotoxicity against human HO8910 cells assessed as growth inhibition at 1 ug/ml after 24 hrs by MTT assay; conditions: HO-8910, 24 h, read-out: GI
KB [17] = assay: Cytotoxicity against human KB cells assessed as growth inhibition at 10 ug/ml after 24 hrs by MTT assay; conditions: read-out: GI
NCI-H460 [18] = assay: Cytotoxicity against human NCI-H460 cells assessed as growth inhibition at 10 ug/ml after 24 hrs by MTT assay; conditions: NCI-H460, 24 h, read-out: GI
NCI-H460 [19] = assay: Cytotoxicity against human NCI-H460 cells assessed as growth inhibition at 1 ug/ml after 24 hrs by MTT assay; conditions: NCI-H460, 24 h, read-out: GI
KB [20] = assay: Cytotoxicity against human KB cells assessed as growth inhibition at 1 ug/ml after 24 hrs by MTT assay; conditions: read-out: GI

| Structure (SMILES) | inhibition of growth at 100 µg/mL (NCI-H460 [2]) [%] | inhibition of growth at 0.1 µg/mL [4] [%] | inhibition of growth at 100 µg/mL (KB [6]) [%] | inhibition of growth at 100 µg/mL (Bel-7402 [7]) [%] | inhibition of growth at 100 µg/mL [8] [%] | inhibition of growth at 100 µg/mL (PC-3 [9]) [%] | inhibition of growth at 1 µg/mL (Bel-7402 [10]) [%] | inhibition of growth at 0.1 µg/mL (Bel-7402 [11]) [%] | inhibition of growth at 0.1 µg/mL (KB [12]) [%] | inhibition of growth at 10 µg/mL [13] [%] | inhibition of growth at 10 µg/mL (Bel-7402 [14]) [%] | inhibition of growth at 0.1 µg/mL (NCI-H460 [15]) [%] | inhibition of growth at 1 µg/mL [16] [%] | inhibition of growth at 10 µg/mL (KB [17]) [%] | inhibition of growth at 10 µg/mL (NCI-H460 [18]) [%] | inhibition of growth at 1 µg/mL (NCI-H460 [19]) [%] | inhibition of growth at 1 µg/mL (KB [20]) [%] | other results |
| --- | --- | --- | --- | --- | --- | --- | --- | --- | --- | --- | --- | --- | --- | --- | --- | --- | --- | --- |
| O=C(CCCC[C@H]1CCSS1)Nc1ccc([N+](=O)[O-])c(C(F)(F)F)c1 | 92.2 | 1.06 | 95.8 | 94 | 92.3 | 79.8 |  |  |  |  |  |  |  |  |  |  |  | growth inhibition (GI) (PC-3 [1]): inactive; growth inhibition (GI) (PC-3 [3]): inactive; growth inhibition (GI) (PC-3 [5]): inactive |
| O=C(CCCCC(S)CCS)Nc1cccc(C(F)(F)F)c1 (stereo not drawn) | 32.1 | 10.8 | 30.5 | 25.3 | 34.8 |  | 1.66 | 2.85 | 8.41 | 8.86 | 1.21 | 11.9 | 13.7 | 1.97 | 11.4 | 8.26 |  |  |
| O=C(CCCCC(CCSC(=O)c1ccccc1)SC(=O)c1ccccc1)Nc1ccccc1Cl (stereo not drawn) |  |  |  |  |  |  | 7.37 | 5.72 | 3.62 | 1.33 | 6.63 | 15.1 | 2.35 | 2.53 | 12.1 | 14.4 | 3.05 |  |
| CC(=O)SCCC(CCCCC(=O)Nc1ccccc1)SC(C)=O (stereo not drawn) | 44.8 | 8.33 | 22.9 | 14.1 | 22.3 |  | 2.84 |  | 7.24 | 3.2 |  | 15.4 | 10.6 | 2.5 | 14.2 | 13.1 | 1.68 |  |
| CC(=O)SCCC(CCCCC(=O)Nc1ccc(Cl)cc1)SC(C)=O (stereo not drawn) | 47.3 | 1.81 | 72 | 45.5 | 58.8 |  | 3.07 | 9.96 | 11.4 | 1.47 | 5.78 | 9.89 | 0.35 | 18.1 | 14.8 | 15.4 | 14.8 |  |
| O=C(CCCCC1CCSS1)Nc1cccc(Cl)c1 (stereo not drawn) | 65.2 |  | 76.5 | 68.2 | 68.3 | 79.5 | 1.11 | 0.33 | 2.85 |  | 4.15 | 6.08 |  | 7.88 | 10.1 | 8.85 |  | inhibition of growth at 0.1 µg/mL (PC-3 [1]): 17.1%; inhibition of growth at 1 µg/mL (PC-3 [3]; PC-3, 24 h, read-out: GI): 8.44%; inhibition of growth at 10 µg/mL (PC-3 [5]; PC-3, 24 h, read-out: GI): 13.8% |
| O=C(CCCCC1CCSS1)Nc1ccc([N+](=O)[O-])c(C(F)(F)F)c1 (stereo not drawn) | 51.6 |  | 49.5 | 23.9 | 47.6 | 90.2 | 7.46 | 5.04 | 4.5 |  |  | 18.8 | 0.96 |  | 12 | 19.1 |  | inhibition of growth at 0.1 µg/mL (PC-3 [1]): 5.37%; growth inhibition (GI) (PC-3 [3]): inactive; growth inhibition (GI) (PC-3 [5]): inactive |
| O=C(CCCCC1CCSS1)Nc1ccccc1Cl (stereo not drawn) | 3.38 | 8.17 | 0.72 | 4.74 |  |  | 5.33 | 6.83 | 5.11 | 4.66 |  | 8 | 7.74 |  | 14.6 | 10.1 |  |  |
